The values below come from US8557849B2 (priority 2008, dated 2013).

One series can be described thus: Measurement of logP values by HPLC on reversed phase columns (EEC directive 79/831 Annex V.A8). Particulars: method [a]: pH 2.3 with 0.1% phosphoric acid and acetonitrile as eluent. Type of series: physicochemical. The method, then:
Measurement of logP values was performed according EEC directive 79/831 Annex V.A8 by HPLC (High Performance Liquid Chromatography) on reversed phase columns with the following methods: • ^[a] Measurement was done at pH 2.3 with 0.1% phosphoric acid and acetonitrile as eluent. • ^[b] measurement of LC-MS was done at pH 2.7 with 0.1% formic acid in water and with acetonitrile (contains 0.1% formic acid) as eluent with a linear gradient from 10% acetonitrile to 95% acetonitrile. • ^[c] Measurement with LC-MS was done at pH 7.8 with 0.001 molar ammonium hydrogen carbonate solution in water as eluent with a linear gradient from 10% acetonitrile to 95% acetonitrile.
As for `CC(ON=C(c1ccccc1)c1nnnn1C)c1csc(C#CCCCc2ccccc2)n1` (stereo not shown) [Example 3], the log p was 5.08^[a].
Same read-out and setting: under `CC(ON=C(c1ccccc1)c1nnnn1C)c1csc(C#CCC2CCCC2)n1` (stereo not shown) [Example 4] stands 5.23^[a].
Same read-out and setting: to `CC(ON=C(c1ccccc1)c1nnnn1C)c1csc(C#CCC2CCCCC2)n1` (stereo not shown) [Example 5] belongs 5.65^[a]; to `CCCCC#Cc1nc(C(C)ON=C(c2ccccc2)c2nnnn2C)cs1` (stereo not shown) [Example 6], 4.73^[a].
Take `Cn1nnnc1C(=NOCCc1csc(Br)n1)c1ccccc1` [Example 7]: the log p was 3.25^[a].
Consider `Cn1nnnc1C(=NOCCc1csc(C#CC2CC2)n1)c1ccccc1` [Example 8], for which the log p was 3.69^[a].
The same measure, in the same setting: to `CCCCC#Cc1nc(CCON=C(c2ccccc2)c2nnnn2C)cs1` [Example 9] belongs 4.46^[a].

Staying with this series, now noted: method [b]: LC-MS at pH 2.7 with 0.1% formic acid in water and acetonitrile, linear gradient 10% to 95% acetonitrile.
For `Cn1nnnc1C(=NOC(=O)c1ccccn1)c1ccccc1` [Example 10], the log p was 2.13^[b].
On the same count and under the same terms, under `CC(ON=C(c1ccccc1)c1nnnn1C)c1ccccn1` (stereo not shown) [Example 11] stands 2.19^[b]; under `CC(ON=C(c1ccccc1)c1nnnn1C)c1cccc(N)n1` (stereo not shown) [Example 12], 1.34^[b].
As to `CC(C)CC(=O)Nc1cccc(C(C)O/N=C(/c2ccccc2)c2nnnn2C)n1` (stereo not shown) [Example 13], the log p was 3.53^[b].
Turning to `CCCCCC(=O)Nc1cccc(C(C)O/N=C(\c2ccccc2)c2nnnn2C)n1` (stereo not shown) [Example 14], the log p is 3.83^[b].
Still for that read-out and setting: under `CCCCCOC(=O)Nc1cccc(C(C)O/N=C(\c2ccccc2)c2nnnn2C)n1` (stereo not shown) [Example 15] stands 4.41^[b].
Still for that read-out and setting: to `CCCCCC(=O)Nc1cccc(C(C)O/N=C(/c2ccccc2)c2nnnn2C)n1` (stereo not shown) [Example 17] belongs 3.96^[b].
With `CCCCCOC(=O)Nc1cccc(C(C)O/N=C(/c2ccccc2)c2nnnn2C)n1` (stereo not shown) [Example 18], the log p was 4.54^[b].

Staying with this series, now noted: reversed phase HPLC column, pH 2.7; HCOOH; given in preparation examples; read-out: logP(HCOOH).
Regarding `CC(O)c1csc(N)n1` (stereo not shown) [1-(2-amino-1,3-thiazol-4-yl)ethanol], the chromatographic logP is -0.16.
The same measure, in the same setting: to `CC(O)c1csc(Br)n1` (stereo not shown) [1-(2-bromo-1,3-thiazol-4-yl)ethanol] belongs 1.1; to `CC(Br)c1csc(Br)n1` (stereo not shown) [2-bromo-4-(1-bromoethyl)-1,3-thiazole], 2.61.
Take `CC(ON=C(c1ccccc1)c1nnnn1C)c1csc(Br)n1` (stereo not shown) [Example 1]: the chromatographic logP was determined as 3.44.
As to `CC(ON=C(c1ccccc1)c1nnnn1C)c1csc(C#CC2CC2)n1` (stereo not shown) [Example 2, N-{1-[2-(cyclopropylethynyl)-1,3-thiazol-4-yl]ethoxy}-1-(1-methyl-1H-tetrazol-5-yl)-1-phenylmethanimine], the chromatographic logP stood at 3.89.
Same read-out and setting: to `CC(ON=C(c1ccccc1)c1nnnn1C)c1cccc(N)n1` (stereo not shown) [Example 16, 6-[1-({[(1-methyl-1H-tetrazol-5-yl)(phenyl)methylene]amino}oxy)ethyl]pyridin-2-amine] belongs 1.21; to `CC(ON=C(c1ccccc1)c1nnnn1C)c1cccc(NC(=O)C(C)(C)C)n1` (stereo not shown) [Example 19, 2,2-dimethyl-N-{6-[1-({[(1-methyl-1H-tetrazol-5-yl)(phenyl)methylene]amino}oxy)ethyl]pyridin-2-yl}propanamide], 3.64; to `CC(ON=C(c1ccccc1)c1nnnn1C)c1cccc(NC(=O)OC(C)(C)C)n1` (stereo not shown) [Example 20, tert-butyl {6-[1-({[(1-methyl-1H-tetrazol-5-yl)(phenyl)methylene]amino}oxy)ethyl]pyridin-2-yl}carbamate], 4.09.
Turning to `CC(C)(C)C(=O)Nc1cccc(Br)n1` [N-(6-bromopyridin-2-yl)-2,2-dimethylpropanamide], the chromatographic logP came out at 2.84.
Consider `CC(Br)c1cccc(NC(=O)C(C)(C)C)n1` (stereo not shown) [N-[6-(1-bromoethyl)pyridin-2-yl]-2,2-dimethylpropanamide], for which the chromatographic logP stood at 3.05.
On the same count and under the same terms, under `CC(O)c1cccc(NC(=O)C(C)(C)C)n1` (stereo not shown) [N-[6-(1-hydroxyethyl)pyridin-2-yl]-2,2-dimethylpropanamide] stands 1.08.

The series is the same for the next values; noted with them: reversed phase HPLC column; method [a]: pH 2.3 with 0.1% phosphoric acid and acetonitrile as eluent; read-out: log p.
For the molecule `CC(ON=C(c1ccccc1)c1nnnn1C)c1csc(Br)n1` (stereo not shown) [Example 1], the chromatographic logP is 3.44.
With `CC(ON=C(c1ccccc1)c1nnnn1C)c1csc(C#CC2CC2)n1` (stereo not shown) [Example 2, N-{1-[2-(cyclopropylethynyl)-1,3-thiazol-4-yl]ethoxy}-1-(1-methyl-1H-tetrazol-5-yl)-1-phenylmethanimine], the chromatographic logP was found to be 3.89.
